The results in this text go back to paper PMC5341770 (Nature microbiology, 2017).

In this test the target is T1, WarA (PA4379) (Pseudomonas aeruginosa, UniProt Q9HW23).
T1 sequence (Q9HW23 1-227): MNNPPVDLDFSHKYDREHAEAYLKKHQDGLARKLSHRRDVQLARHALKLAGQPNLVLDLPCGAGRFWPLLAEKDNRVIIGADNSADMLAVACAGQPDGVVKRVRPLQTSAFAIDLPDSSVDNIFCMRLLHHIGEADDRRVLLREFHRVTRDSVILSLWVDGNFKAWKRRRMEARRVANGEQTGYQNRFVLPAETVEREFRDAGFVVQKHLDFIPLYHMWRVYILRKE
Conditions: methyl acceptor: LPS from a warA deletion mutant.

Regarding `C[S+](CC[C@H](N)C(=O)O)C[C@H]1O[C@@H](n2cnc3c(N)ncnc32)[C@H](O)[C@@H]1O` (stereo partly drawn) [S-adenosyl-L-methionine], the “fluorescent methyltransferase activity kit” value is “using S-adenosyl-L-methionine as the methyl group donor and measuring activity in relative fluorescent units”.
